Test results: publication PMC9696832, “Pyrazole-Based Thrombin Inhibitors with a Serine-Trapping Mechanism of Action: Synthesis and Biological Activity” (Pharmaceuticals, 2022)
Read-outs that look alike come from different tables or passages of the source.

Columns and labels:
human α-thrombin = biological target: T1, human α-thrombin (Homo sapiens, UniProt P00734); test: Serine protease inhibition assay, fluorogenic substrate: thrombin; format: biochemical
T1 construct: human α-thrombin (active) protein; purchased antibodies-online ABIN2127880
Experimental: Serine protease inhibition assays. The inhibitory activity of synthesized compounds towards thrombin, FXIIa, FXa, FXIa, plasmin, plasma kallikrein, chymotrypsin, and trypsin was measured by quantifying the hydrolysis rate of the fluorogenic substrate as reported previously [14, 17]. Briefly, the activity was tested in buffer (10 mM Tris-Cl, 150 mM NaCl, 10 mM MgCl2·6H2O, 1 mM CaCl2·2H2O, 0.1% w/v BSA, 0.01% v/v Triton-X100, pH = 7.4) utilizing clear flat-bottom, black polystyrene 96 well-plates. […] The fluorogenic substrate solution was added into the wells followed by the addition of 2 µL of test-compounds solution, and the reaction was triggered by addition of the enzyme solution (final testing volume–152 µL). In case of blank (substrate + buffer) and control (substrate + enzyme) wells, 2 µL of DMSO was added instead of the test-compounds’ solution. […] To derive IC50 values, endpoint RFU (single fluorescence reading) was used. Sigmoidal curves were prepared in GraphPad Prism software and IC50 values were derived from the fitted curves [14, 17].

human β-FXIIa = biological target: T2, human β-FXIIa (Homo sapiens, UniProt P00748); test: Serine protease inhibition assay, fluorogenic substrate: FXIIa; format: biochemical; conditions: for IC50: read-out: Serine Protease IC50 ± SD, FXIIa
T2 construct: human β-FXIIa, HFXIIAB; purchased Molecular Innovations HFXIIAB
Experimental: Serine protease inhibition assays. The inhibitory activity of synthesized compounds towards thrombin, FXIIa, FXa, FXIa, plasmin, plasma kallikrein, chymotrypsin, and trypsin was measured by quantifying the hydrolysis rate of the fluorogenic substrate as reported previously. Briefly, the activity was tested in buffer (10 mM Tris-Cl, 150 mM NaCl, 10 mM MgCl2·6H2O, 1 mM CaCl2·2H2O, 0.1% w/v BSA, 0.01% v/v Triton-X100, pH = 7.4) utilizing clear flat-bottom, black polystyrene 96 well-plates. […] Dilutions of test-compounds ranging from 2 nM to 32 µM (final concentrations) in DMSO were prepared. The fluorogenic substrate solution was added into the wells followed by the addition of 2 µL of test-compounds solution, and the reaction was triggered by addition of the enzyme solution (final testing volume–152 µL). In case of blank (substrate + buffer) and control (substrate + enzyme) wells, 2 µL of DMSO was added instead of the test-compounds’ solution. Fluorescence intensity was measured with Microplate Reader Mithras LB 940 (Berthold Technologies, excitation at 355 nm, emission at 460 nm) for a period of 1 h (thrombin, FXIIa, FXa, FXIa, and trypsin), 30 min (plasma kallikrein, chymotrypsin), or 15 min (plasmin) with a read every minute. The reactions were performed at 25 °C. To derive IC50 values, endpoint RFU (single fluorescence reading) was used. Sigmoidal curves were prepared in GraphPad Prism software and IC50 values were derived from the fitted curves.

[1] = read-out: Serine Protease IC50 ± SD, Thrombin
[2] = [S]0 = 25 µM Boc-Val-Pro-Arg-AMC, Km = 18 ± 1 µM, triplicate, 25 °C, read-out: Serine Protease IC50 ± SD, Thrombin

T2 sequence (P00748 373-615 limits assumed, other chains not shown): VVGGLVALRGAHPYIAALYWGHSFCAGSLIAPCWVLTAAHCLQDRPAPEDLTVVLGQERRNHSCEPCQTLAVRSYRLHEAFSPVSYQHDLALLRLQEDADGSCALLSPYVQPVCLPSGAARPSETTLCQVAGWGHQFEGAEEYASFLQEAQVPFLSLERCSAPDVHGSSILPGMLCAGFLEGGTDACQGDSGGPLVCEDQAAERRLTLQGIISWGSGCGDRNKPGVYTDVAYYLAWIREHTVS

IC50 (human α-thrombin; [1]) [µM] | IC50 (human β-FXIIa) [µM] | other results | SMILES
> 5 | > 5 | melting point: 210 °C | O=c1c2ccccc2n(Cc2ccc(Cl)s2)c2cc(C3CCCCC3)nn12 [10i, 4-[(5-chlorothiophen-2-yl)methyl]-2-cyclohexylpyrazolo[5,1-b]quinazolin-9(4H)-one]
– | > 5 | IC50 (human α-thrombin; [2]): 1.282 ± 0.009 µM; IC50 (human α-thrombin; read-out: thrombin IC50): ~1.3 µM; melting point: 130 °C | COc1ccc(CNc2cc(-c3cccnc3)nn2C(=O)C(C)(C)C)cc1 [24b, 1-{5-[(4-methoxybenzyl)amino]-3-(pyridin-3-yl)-1H-pyrazol-1-yl}-2,2-dimethylpropan-1-one]
– | > 5 | IC50 (human α-thrombin; [2]): > 5 µM; melting point: 130 to 131 °C | CC(C)(C)C(=O)n1nc(-c2cccnc2)cc1NCc1cccc2ccccc12 [24c, 2,2-dimethyl-1-(5-{[(naphthalen-1-yl)methyl]amino}-3-(pyridin-3-yl)-1H-pyrazol-1-yl)propan-1-one]
– | > 5 | IC50 (human α-thrombin; [2]): 1.31 ± 0.032 µM; IC50 (human α-thrombin; read-out: thrombin IC50): ~1.3 µM | CC(C)(C)C(=O)n1nc(-c2cccnc2)cc1NCc1ccco1 [24d, 1-(5-{[(furan-2-yl)methyl]amino}-3-(pyridin-3-yl)-1H-pyrazol-1-yl)-2,2-dimethylpropan-1-one]
– | > 5 | IC50 (human α-thrombin; [2]): 0.419 ± 0.099 µM | CC(C)(C)C(=O)n1nc(-c2ccccc2)cc1NCc1ccc(Cl)s1 [24g, 1-(5-{[(5-chlorothiophen-2-yl)methyl]amino}-3-phenyl-1H-pyrazol-1-yl)-2,2-dimethylpropan-1-one]
– | > 5 | thrombin inhibitory properties (in words) (human α-thrombin): inactive; IC50 (human α-thrombin; [2]): > 5 µM; FXIIa inhibitory properties (in words) (human β-FXIIa): inactive; melting point: 47 °C | CC(C)(C)C(=O)n1nc(C2CCCCC2)cc1NCc1ccccc1 [24h, 1-[5-(benzylamino)-3-cyclohexyl-1H-pyrazol-1-yl]-2,2-dimethylpropan-1-one]
– | – | melting point: 270 °C (dec.) | O=C(Nc1cc(-c2cccnc2)n[nH]1)c1ccccc1 [26a, N-[3-(pyridin-3-yl)-1H-pyrazol-5-yl]benzamide]
> 5 | > 5 | – | Nc1cc(-c2cccnc2)nn1C(=O)c1ccccc1 [29a, [5-amino-3-(pyridin-3-yl)-1H-pyrazol-1-yl](phenyl)methanone]
> 5 | > 5 | – | Nc1cc(-c2ccccc2)nn1C(=O)c1ccccc1 [29b, (5-amino-3-phenyl-1H-pyrazol-1-yl)(phenyl)methanone]
– | > 5 | – | [H]/N=C(/N)c1ccc(NCc2nc3cc(C(=O)N(CCC(=O)O)c4ccccn4)ccc3n2C)cc1 [Dabigatran, reference compound]
> 5 | > 5 | – | O=C(Nc1cc(-c2cccnc2)n[nH]1)c1ccccc1I [compound 14, 2-iodo-N-[3-(pyridin-3-yl)-1H-pyrazol-5-yl]benzamide]
> 5 | > 5 | – | O=c1[nH]c2cc(-c3cccnc3)nn2c2ccccc12 [compound 15, 2-(pyridin-3-yl)pyrazolo[1,5-a]quinazolin-5(4H)-one]
> 5 | > 5 | – | O=c1c2ccccc2n(Cc2ccc(Cl)s2)c2nc(-c3cnccn3)nn12 [compound 19, 4-[(5-chlorothiophen-2-yl)methyl]-2-(pyrazin-2-yl)-[1,2,4]triazolo[5,1-b]quinazolin-9(4H)-one]
> 5 | > 5 | – | O=c1c2ccccc2[nH]c2nc(-c3cccnc3)nn12 [compound 20, 2-(pyridin-3-yl)-[1,2,4]triazolo[5,1-b]quinazolin-9(4H)-one]
> 5 | > 5 | – | O=c1[nH]c2nc(-c3cccnc3)nn2c2ccccc12 [compound 21, 2-(pyridin-3-yl)-[1,2,4]triazolo[1,5-a]quinazolin-5(4H)-one]
> 5 | – | – | O=c1c2ccccc2[nH]c2nc(-c3ccncc3)nn12 [compound 22, 2-(pyridin-4-yl)-[1,2,4]triazolo[5,1-b]quinazolin-9(4H)-one]
> 5 | > 5 | – | O=c1[nH]c2nc(-c3ccncc3)nn2c2ccccc12 [compound 23, 2-(pyridin-4-yl)-[1,2,4]triazolo[1,5-a]quinazolin-5(4H)-one]
